A word on the IC50: it is the concentration needed to halve the response being measured.

For 2 compounds, IC50, clinical score and inflammation results are on record in US10206907B2, “Compounds useful for the treatment of degenerative and inflammatory diseases” (GALAPAGOS NV, priority 2008, dated 2019).

The target in assay [1] is Recombinant human TYK2 catalytic domain (Homo sapiens (Human), UniProt P29597). The assay is described as follows: TYK2 inhibition assay. It is filed as biochemical. The following applies: semi-quantitative score. Summed up:
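Recombinant human TYK2 catalytic domain; radiometric kinase reaction run 90 min at 30° C, stopped with phosphoric acid, washed and counted by scintillation.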

The test system of assay [2] is Collagen antibody-induced arthritis. The assay is described as follows: MAB model (collagen antibody-induced arthritis). The format is in vivo, mouse. The following applies: 30 mg/kg p.o., DBA/J mice. The procedure: The MAB model allows a rapid assessment of the modulation of an RA-like inflammatory response by therapeutics ([…]. Nature Protocols (2006) 2512-2516: Collagen antibody-induced arthritis). DBA/J mice were injected i.v. with a cocktail of mAbs directed against collagen II. One day later, compound treatment was initiated (vehicle: 10% (v/v) HPβCD). Three days later, mice received an i.p. LPS injection (50 μg/mouse), resulting in a fast onset of inflammation. Compound treatment was continued until 10 days after the mAb injection. Inflammation was read by measuring paw swelling and recording the clinical score of each paw. The cumulative clinical arthritis score of four limbs was presented to show the severity of inflammation. A scoring system is applied to each limb using a scale of 0-4, with 4 being the most severe inflammation. • 0 Symptom free • 1 Mild, but definite redness and swelling of one type of joint such as the ankle or wrist, or apparent redness and swelling limited to individual digits, regardless of the number of affected digits • 2 Moderate redness and swelling of two or more types of joints • 3 Severe redness and swelling of the entire paw including digits • 4 Maximally inflamed limb with involvement of multiple joints

Sequence of Recombinant human TYK2 catalytic domain (P29597 871-1187): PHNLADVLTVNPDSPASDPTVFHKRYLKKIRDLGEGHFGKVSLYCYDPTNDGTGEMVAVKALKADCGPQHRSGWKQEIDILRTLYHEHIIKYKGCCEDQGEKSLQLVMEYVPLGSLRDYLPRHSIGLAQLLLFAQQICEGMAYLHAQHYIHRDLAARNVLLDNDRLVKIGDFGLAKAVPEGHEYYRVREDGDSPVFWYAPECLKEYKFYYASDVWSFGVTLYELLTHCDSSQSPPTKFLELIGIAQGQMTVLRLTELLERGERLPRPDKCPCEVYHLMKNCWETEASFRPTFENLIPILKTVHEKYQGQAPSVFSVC

On to `O=C(Nc1nc2cccc(-c3ccc(CN4CCOCC4)cc3)n2n1)C1CC1` [Compound 18, N-(5-(4-(morpholinomethyl)phenyl)-[1,2,4]triazolo[1,5-a]pyridin-2-yl)cyclopropanecarboxamide], for which, in assay [1], the IC50 is more than 1000 nM.
With `N#Cc1ccc(COc2ccc(-c3cccc4nc(NC(=O)C5CC5)nn34)cc2)cn1` [Compound 176, N-(5-(4-((6-cyanopyridin-3-yl)methoxy)phenyl)-[1,2,4]triazolo[1,5-a]pyridin-2-yl)cyclopropanecarboxamide], in assay [1], the IC50 is less than 100 nM. Also, in assay [2], the clinical score entry was “reduced the clinical score with statistical significance” and the inflammation result was “significantly reduced inflammation”.
